Data reported in patent EP0090603A2, “Antibacterial compounds” (BEECHAM GROUP PLC, priority 1982, dated 1983).
In brackets after ≈: the same amount, converted by molar mass.

Legend:
Bord. bronchiseptica B09 = test: MIC against Veterinary Bacteria, in vitro agar dilution; conditions: Bordetella bronchiseptica, B09, 18 h, read-out: MIC's against Bord. bronchiseptica B09
Method: (§1) The activity of the compounds of the Examples against various veterinarily important bacteria, was assayed in vitro using two-fold serial dilutions in Diagnostic Sensitivity Test Agar inoculated with 10^4 organisms.

[1] = test system: M. suipneumoniae J2206/183^b; test: MIC against Mycoplasma, in vitro agar dilution; format: cell-based; conditions: Mesomycoplasma hyopneumoniae, 144 h; Friis broth solidified with 0.9% agarose, 10^3 to 10^5 C.F.U., 6 days at 37°C; read-out: MIC's against M. suipneumoniae J2206/183^b
M. suipneumoniae NB12 = test: MIC against Mycoplasma, in vitro agar dilution; format: cell-based; conditions: Mesomycoplasma hyopneumoniae, NB12, 144 h; Friis broth solidified with 0.9% agarose, 10^3 to 10^5 C.F.U., 6 days at 37°C; read-out: MIC's against M. suipneumoniae NB12
S. typhimurium S18 = test: MIC against Veterinary Bacteria, in vitro agar dilution; conditions: Salmonella enterica, TYPHIMURIUM, 18 h, read-out: MIC's against S. typhimurium S18
Method: as §1

Past. multocida PA2 = test: as above; conditions: Pasteurella multocida, PA2, 18 h, read-out: MIC's against Past. multocida PA2
Method: as §1

Strep. dysgalactiae SPD1 = test: as above; conditions: Streptococcus dysgalactiae, SPD1, 18 h, read-out: MIC's against Strep. dysgalactiae SPD1
Method: as §1

E. coli NCTC 10418 = test: as above; conditions: Escherichia coli, NCTC10418, 18 h, read-out: MIC's against E. coli NCTC 10418
Method: as §1

[2] = test system: Staph. aureus B4 (pen. resistant); test: as above; conditions: Staphylococcus aureus, 18 h, read-out: MIC's against Staph. aureus B4 (pen. resistant)
Method: as §1

M. suipneumoniae Str. 11 = test: MIC against Mycoplasma, in vitro agar dilution; format: cell-based; conditions: Mesomycoplasma hyopneumoniae, STR.11, 144 h; Friis broth solidified with 0.9% agarose, 10^3 to 10^5 C.F.U., 6 days at 37°C; read-out: MIC's against M. suipneumoniae Str. 11
Staph. aureus Oxford = test: MIC against Veterinary Bacteria, in vitro agar dilution; conditions: Staphylococcus aureus, 18 h, read-out: MIC's against Staph. aureus Oxford
Method: as §1

M. suipneumoniae LABER = test: MIC against Mycoplasma, in vitro agar dilution; format: cell-based; conditions: Mesomycoplasma hyopneumoniae, 144 h; Friis broth solidified with 0.9% agarose, 10^3 to 10^5 C.F.U., 6 days at 37°C; read-out: MIC's against M. suipneumoniae LABER
M. hyorhinis ATCC 23234 = test: MIC against Mycoplasma, in vitro agar dilution; format: cell-based; conditions: Mesomycoplasma hyorhinis, ATCC23234, 144 h; Friis broth solidified with 0.9% agarose, 10^3 to 10^5 C.F.U., 6 days at 37°C; read-out: MIC's against M. hyorhinis ATCC 23234
M. pneumoniae ATCC 15492 = test: MIC against Mycoplasma, in vitro agar dilution; format: cell-based; conditions: Mycoplasmoides pneumoniae, ATCC15492, 144 h; Friis broth solidified with 0.9% agarose, 10^3 to 10^5 C.F.U., 6 days at 37°C; read-out: MIC's against M. pneumoniae ATCC 15492

Row | Compound | MIC (Bord. bronchiseptica B09) | MIC [1] | MIC (M. suipneumoniae NB12) | MIC (S. typhimurium S18) | MIC (Past. multocida PA2) | MIC (Strep. dysgalactiae SPD1) | MIC (E. coli NCTC 10418) | MIC [2] | MIC (M. suipneumoniae Str. 11) | MIC (Staph. aureus Oxford) | MIC (M. suipneumoniae LABER) | MIC (M. hyorhinis ATCC 23234) | MIC (M. pneumoniae ATCC 15492)
1 | COC(=O)C(C)=C(C)CC1OCC(CC2OC2C(C)C(C)O)C(O)C1O [Example 2, Methyl 4-[5S-(2S,3S-epoxy-5S-hydroxy-4S-methylhexyl)-3R,4R-dihydroxytetrahydropyran-2S-yl]-2,3-dimethylbut-2(E)-enoate] | 40 µg/mL (≈ 107 µM) | 5 µg/mL (≈ 13.4 µM) | 5 µg/mL (≈ 13.4 µM) | > 80 µg/mL | 5 µg/mL (≈ 13.4 µM) | 40 µg/mL (≈ 107 µM) | > 80 µg/mL | 5 µg/mL (≈ 13.4 µM) | 5 µg/mL (≈ 13.4 µM) | 5 µg/mL (≈ 13.4 µM) | 5 µg/mL (≈ 13.4 µM) | 5 µg/mL (≈ 13.4 µM) | –
2 | CCOC(=O)C(C)=C(C)CC1OCC(CC2OC2C(C)C(C)O)C(O)C1O [Example 1, Ethyl 4-[5S-(2S,3S-epoxy-5S-hydroxy-4S-methylhexyl)-3R,4R-dihydroxytetrahydropyran-2S-yl]-2,3-dimethylbut-2(E)-enoate] | 80 µg/mL (≈ 207 µM) | 2.5 µg/mL (≈ 6.47 µM) | 1 µg/mL (≈ 2.59 µM) | > 80 µg/mL | 1.25 µg/mL (≈ 3.23 µM) | 5 µg/mL (≈ 12.9 µM) | > 80 µg/mL | 0.625 µg/mL (≈ 1.62 µM) | 1 µg/mL (≈ 2.59 µM) | 0.625 µg/mL (≈ 1.62 µM) | 1 µg/mL (≈ 2.59 µM) | 0.5 µg/mL (≈ 1.29 µM) | 10 µg/mL (≈ 25.9 µM)
3 | CC(CC1OCC(CC2OC2C(C)C(C)O)C(O)C1O)=C(C)C(=O)OCc1cccc([N+](=O)[O-])c1 [Example 3, m-Nitrobenzyl 4-[5S-(2S,3S-epoxy-5S-hydroxy-4S-methylhexyl)-3R,4R-dihydroxytetrahydropyran-2S-yl]-2,3-di-methylbut-2(E)-enoate] | 80 µg/mL (≈ 162 µM) | 0.1 µg/mL (≈ 0.203 µM) | 0.05 µg/mL (≈ 0.101 µM) | > 80 µg/mL | 1.25 µg/mL (≈ 2.53 µM) | 0.312 µg/mL (≈ 0.632 µM) | > 80 µg/mL | 1.25 µg/mL (≈ 2.53 µM) | 0.05 µg/mL (≈ 0.101 µM) | 1.25 µg/mL (≈ 2.53 µM) | 0.05 µg/mL (≈ 0.101 µM) | 0.025 µg/mL (≈ 0.0507 µM) | 2.5 µg/mL (≈ 5.07 µM)
4 | CC(CC1OCC(CC2OC2C(C)C(C)O)C(O)C1O)=C(C)C(=O)O [Example 4, Sodium 4-[5S-(2S, 35-epoxy-5S-hydroxy-4S-methylhexyl)-3R,4R-dihydroxytetrahydropyran-2S-yl]-2,3-dimethylbut-2(E)-enoate] | 40 µg/mL | 0.25 µg/mL | 0.25 µg/mL | > 80 µg/mL | 2.5 µg/mL | 1.25 µg/mL | > 80 µg/mL | 1.25 µg/mL | 0.1 µg/mL | 1.25 µg/mL | 0.1 µg/mL | 0.1 µg/mL | 5 µg/mL
